Results: PubChem BioAssay (NCI)
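Grown in 96-well plates, cells were treated for 48 hours with each compound at five concentrations. Insufficient inhibition: endpoint recorded as highest concentration tested. GI50 marks 50% less growth. TGI: concentration producing complete growth inhibition.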

Key:
Experiment in all cases: NCI anticancer screen, dose series, 48 h
EKVX NSCLC = tested on: EKVX NSCLC
HOP-62 NSCLC = tested on: HOP-62 NSCLC
HOP-92 NSCLC = tested on: HOP-92 NSCLC
IGROV1 ovarian = tested on: IGROV1 ovarian
M14 melanoma = tested on: M14 melanoma
MDA-MB-231 breast = tested on: MDA-MB-231 breast
RXF 393 renal = tested on: RXF 393 renal
SK-MEL-2 melanoma = tested on: SK-MEL-2 melanoma
SK-OV-3 ovarian = tested on: SK-OV-3 ovarian
SNB-75 CNS = tested on: SNB-75 CNS

C[C@]12CC[C@@H]3c4ccc(O)cc4CC[C@H]3[C@@H]1CC[C@@H]2OC(=O)CCc1ccccc1
TGI (EKVX NSCLC): 25.4 µM | TGI (HOP-62 NSCLC): 55.9 µM | TGI (HOP-92 NSCLC): 36.8 µM | TGI (IGROV1 ovarian): 43.9 µM | TGI (M14 melanoma): 37.8 µM | TGI (MDA-MB-231 breast): 33.4 µM | TGI (RXF 393 renal): 33.6 µM | TGI (SK-MEL-2 melanoma): 30.8 µM | TGI (SK-OV-3 ovarian): 38.1 µM | TGI (SNB-75 CNS): 33.8 µM

COc1cc(C(=O)CC2OC(=O)C(Cl)=C2Cl)ccc1Cl (stereo not given)
TGI (EKVX NSCLC): > 100 µM | TGI (HOP-62 NSCLC): > 100 µM | TGI (HOP-92 NSCLC): > 100 µM | TGI (IGROV1 ovarian): > 100 µM | TGI (M14 melanoma): > 100 µM | TGI (RXF 393 renal): > 100 µM | TGI (SK-MEL-2 melanoma): > 100 µM | TGI (SK-OV-3 ovarian): > 100 µM | TGI (SNB-75 CNS): > 100 µM

CO/N=C\c1cc(O)c(O)c(/C=N/OC)c1
TGI (EKVX NSCLC): > 100 µM | TGI (HOP-62 NSCLC): > 100 µM | TGI (HOP-92 NSCLC): > 100 µM | TGI (IGROV1 ovarian): > 100 µM | TGI (M14 melanoma): > 100 µM | TGI (MDA-MB-231 breast): > 100 µM | TGI (RXF 393 renal): > 100 µM | TGI (SK-MEL-2 melanoma): > 100 µM | TGI (SK-OV-3 ovarian): > 100 µM | TGI (SNB-75 CNS): > 100 µM

O=C1c2ccccc2C(=O)c2c(Nc3cc4c5c(ccc6c7ccc8c9c(cc(Nc%10cccc%11c%10C(=O)c%10ccccc%10C%11=O)c(c3c56)c97)-c3ccccc3C8=O)C(=O)c3ccccc3-4)cccc21
TGI (EKVX NSCLC): > 100 µM | TGI (HOP-62 NSCLC): 44.6 µM | TGI (HOP-92 NSCLC): > 100 µM | TGI (IGROV1 ovarian): > 100 µM | TGI (M14 melanoma): > 100 µM | TGI (MDA-MB-231 breast): > 100 µM | TGI (RXF 393 renal): > 100 µM | TGI (SK-MEL-2 melanoma): > 100 µM | TGI (SK-OV-3 ovarian): 51.1 µM | TGI (SNB-75 CNS): 41.5 µM

O=C(c1ccccc1)C1C(c2ccccc2)N1S(=O)(=O)c1ccccc1 (stereo not given)
TGI (EKVX NSCLC): > 100 µM | TGI (HOP-62 NSCLC): > 100 µM | TGI (IGROV1 ovarian): > 100 µM | TGI (M14 melanoma): > 100 µM | TGI (MDA-MB-231 breast): > 100 µM | TGI (RXF 393 renal): > 100 µM | TGI (SK-MEL-2 melanoma): > 100 µM | TGI (SK-OV-3 ovarian): > 100 µM | TGI (SNB-75 CNS): > 100 µM

O=C1C=CC(=O)c2c(O)c(Br)c(Br)c(O)c21
TGI (EKVX NSCLC): 58.7 µM | TGI (HOP-62 NSCLC): 24.8 µM | TGI (HOP-92 NSCLC): 4.18 µM | TGI (IGROV1 ovarian): 29.7 µM | TGI (M14 melanoma): 3.79 µM | TGI (MDA-MB-231 breast): 7.43 µM | TGI (RXF 393 renal): 6.13 µM | TGI (SK-MEL-2 melanoma): 46.6 µM | TGI (SK-OV-3 ovarian): 35.5 µM | TGI (SNB-75 CNS): 38.4 µM

Cc1ccc(C2COc3cc(O)c(O)cc3C2)cc1 (stereo not given)
TGI (EKVX NSCLC): 59.8 µM | TGI (HOP-62 NSCLC): 266 µM | TGI (IGROV1 ovarian): 38.5 µM | TGI (RXF 393 renal): 26.2 µM | TGI (SK-MEL-2 melanoma): 57.3 µM | TGI (SK-OV-3 ovarian): 275 µM | TGI (SNB-75 CNS): 126 µM

N#C/C(=C\c1ccc(Br)cc1)n1nnc2cc(Cl)c(Cl)cc21
GI50 (EKVX NSCLC): 2.83 µM | TGI (EKVX NSCLC): > 100 µM | GI50 (HOP-62 NSCLC): 3.26 µM | TGI (HOP-62 NSCLC): > 100 µM | GI50 (HOP-92 NSCLC): 1.14 µM | TGI (HOP-92 NSCLC): 3.79 µM | GI50 (IGROV1 ovarian): 2 µM | TGI (IGROV1 ovarian): 4.53 µM | GI50 (M14 melanoma): 1.92 µM | TGI (M14 melanoma): 5.03 µM | GI50 (MDA-MB-231 breast): 2.31 µM | TGI (MDA-MB-231 breast): 8 µM | GI50 (SK-MEL-2 melanoma): 2.08 µM | TGI (SK-MEL-2 melanoma): 4.86 µM | GI50 (SK-OV-3 ovarian): 4.33 µM | TGI (SK-OV-3 ovarian): > 100 µM | GI50 (SNB-75 CNS): 1.73 µM | TGI (SNB-75 CNS): 8.26 µM

OCc1cc2ccncc2c2c1[nH]c1ccccc12
TGI (EKVX NSCLC): > 100 µM | TGI (HOP-92 NSCLC): 82.5 µM | TGI (IGROV1 ovarian): 17.1 µM | TGI (M14 melanoma): 43.8 µM | TGI (RXF 393 renal): 9.77 µM | TGI (SK-MEL-2 melanoma): 67.5 µM | TGI (SNB-75 CNS): 19.5 µM
